The values below come from patent US3968214A, “5-Methylthio-pyrimidine vasodilators” (Produits Chimiques Ugine Kuhlmann, priority 1973, dated 1976).

Structures are written as SMILES.

Data set [1] can be described thus: Acute toxicity in mice, intravenous and oral (LD50). Particulars: mouse, in vivo, oral, read-out: Acute toxicity to mice LD 50, orally. Format: in vivo. The text has this: (§1) The acute toxicities of the compounds according to the invention have been determined CD 1 mice (Charles RIVER) by intravenous and oral methods. The LD50 calculated by the quantal cumulative method of J. J. Reed and H. Muench (Amer. J. Hyg. 1938, 27, 493) are collected in the following Table: […]

Data set [2] relates to isolated duodenum of rabbit, spasms induced by barium chloride. The data set can be described thus: Spasmolytic activity, musculotrope versus BaCl2, isolated duodenum (Magnus). The text has this:
(§2) The spasmolytic activities are known by means of the technique of R. Magnus (Arch. Ges. Physiol., 1904, 102, 123) on the isolated duodenum of rabbits. The spasmolytic neurotropes inhibit the contractions of the organ caused by acetylcholine, while the musculotropes prevent the spasms induced by barium chloride. The EC 50 expressed in mg/litre are collected in the following Table where EC denotes "Effective concentration".

In data set [3] the test system is serotonin (shaking of the head induced by 5-hydroxy-tryptophan). The data set is described as follows: Central antiserotonin activity: Head-twitch induced by 5-hydroxy-tryptophan. Format: in vivo, mice. Particulars: Mus musculus; mice, oral; read-out: Antiserotonin activity Head-twitch AD 50. The text has this: The analgesic activities have been investigated with respect to abdominal spasms caused in mice by the intraperitoneal injection of 2-phenyl-1,4-benzoquinone according to E. Siegmund, E. Cadmus and G. Lu, Proc. Soc. exp. […] The central antiserotonin properties have been determined by the "Head-twitch" technique in mice according to S. J. Corne, R. W. Pickering and B. T. Warner, Brit. […] In this test, the antiserotonin products inhibit the sudden shaking of the head induced in mice by 5-hydroxy-tryptophan, the biological precursor of serotonin.

Data set [4] deals with glycemia. The data set can be described thus: Hypoglycemiant activity, variation of glycemia after 4 days of daily oral treatment. Format: in vivo, male CD rats (Charles RIVER). Particulars: rat. The procedure: The hypoglycemiant properties have been studied on the male CD rats (Charles RIVER) weighing 200 to 250 g, in which the glycemia is controlled before treatment and then after 4 days of daily oral treatment. The seric glucose is determined by the method of W. S. Hoffmann (J. Biol. Chem., 1937, 120, 51). Groups of 10 rats are used and the hypoglycemiant activity is expressed by the percentage variation of the average glycemia of the treated animals with respect to that of the controls. If it is necessary, the statistical significance of the difference is determined by the test of the coefficient "t" of Student.

The subject of data set [5] is abdominal spasms caused in mice by 2-phenyl-1,4-benzoquinone. The data set can be described thus: Analgesic activity: abdominal spasms caused by intraperitoneal 2-phenyl-1,4-benzoquinone (P.B.Q.). Format: in vivo. As to conditions: Mus musculus; mice, oral; read-out: Analgesic activity P.B.Q. AD 50. The text has this: The analgesic activities have been investigated with respect to abdominal spasms caused in mice by the intraperitoneal injection of 2-phenyl-1,4-benzoquinone according to E. Siegmund, E. Cadmus and G. Lu, Proc. Soc. exp. Biol. Med., 1957, 95, 729-731. The central antiserotonin properties have been determined by the "Head-twitch" technique in mice according to S. J. Corne, R. W. Pickering and B. T. Warner, Brit. J. Pharmacol., 1963, 20, 106-120. In this test, the antiserotonin products inhibit the sudden shaking of the head induced in mice by 5-hydroxy-tryptophan, the biological precursor of serotonin.

Data set [6] concerns isolated duodenum of rabbit, contractions caused by acetylcholine. The data set can be described thus: Spasmolytic activity, neurotrope versus acetylcholine, isolated duodenum (Magnus).
Description: as §2

Data set [7] concerns mice. The data set is described as follows: Acute toxicity in mice, intravenous and oral (LD50). Format: in vivo.
Description: as §1

For the molecule `CCCN(CCC)c1nc(Cl)c(SC)c(NCCN(CC)CC)n1` [Example 5, 2-dipropylamino-4-(2'-diethylamino)-ethylamino-5-methylthio-6-chloro-pyrimidine], in data set [1], the LD50 amounted to 800 mg/kg. Besides, the “Spasmolytic activity EC 50, musculotrope versus BaCl2” value in data set [2] was determined as 0.90 µg/mL. Moreover, the results for the ED50 in data set [3] and in data set [5] were 100 mg/kg and more than 300 mg/kg, respectively. Further, the “hypoglycemiant properties (in words)” value in data set [4] is given as “strong hypoglycemiant properties”. Besides, the “Spasmolytic activity EC 50, neurotrope versus acetylcholine” value in data set [6] was determined as 1.00 µg/mL.

For `CSc1c(Cl)nc(N(C)c2ccc(Cl)cc2)nc1NCCN(C(C)C)C(C)C` [Example 18, 2-N-methyl-N(4-chloro-phenyl)amino-4-(2'-diisopropyl-amino)-ethylamino-5-methylthio-6-chloro-pyrimidine], the LD50 in data set [1] was more than 900 mg/kg. Moreover, the values for the ED50 in data set [3] and in data set [5] were 205 mg/kg and more than 300 mg/kg, respectively. Also, the “hypoglycemiant properties (in words)” value in data set [4] is listed as “strong hypoglycemiant properties”.

For the molecule `CSc1c(NCCN(C(C)C)C(C)C)nc(N(C)c2ccccc2)nc1OCCCN(C)C` [Example 30, 2-N-methyl-N-phenyl-amino-4-(2'-di-isopropyl-amino)-ethylamino-5-methyl-thio-6-(dimethylaminoethyl)-methoxy-pyrimidine], in data set [7] (intravenous), the “Acute toxicity to mice LD 50, intravenous” value is listed as 9.5 mg/kg. Further, in data set [7] (oral), the “Acute toxicity to mice LD 50, orally” value turned out to be 200 mg/kg. In data set [2], the “Spasmolytic activity EC 50, musculotrope versus BaCl2” value turned out to be 1.00 µg/mL. For the same molecule, in data set [4], the “hypoglycemiant properties (in words)” value is on record as “strong hypoglycemiant properties”.
